The source of these data is article PMC9235293 (European Journal of Medicinal Chemistry, 2022).

For `CC(C)[C@H](NC(=O)OCc1ccccc1)C(=O)N[C@@H](Cc1cccs1)C(=O)N[C@H](C=O)C[C@@H]1CCNC1=O` [MPI15], the “Solubility in DMSO” value is “insoluble”.
